The supplement of paper PMC10307832

Legend:
Assay in all cases: relative viability (nuclei count vs DMSO), 5 days (fraction); higher = more cells survive
[1] = compound: CC1=CC(=NN1)NC2=CC(=NC(=N2)/C=C/C3=CC=CC=C3)N4CCN(CC4)C + C[C@]1(O)C[C@@H](c2nc(-c3ccc4ccc(-c5ccccc5)nc4c3)c3c(N)nccn32)C1 [Linsitinib] (partner 1 µM)
Procedure, shortened: (§1)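 After 5 days of treatment, lung cancer cells in 1536-well plates were fixed and stained in a single step (final 0.05% Triton X-100, 1% formaldehyde, 1 ug/ml Hoechst) and their nuclei counted on 4× images. Treatment had been applied by pin tool the day after seeding as one drug alone or as a fixed anchor-drug dose with five library-drug doses (not always all listed) in √10 steps. Relative viability is the nuclei count of treated wells divided by that of vehicle wells, and values are medians of duplicate plates.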

[2] = compound: COC1=CC(c2cc3ccccc3[nH]2)=N/C1=C\c1[nH]c(C)cc1C [Obatoclax] + COc1cc2c(Oc3ccc(NC(=O)C4(C(=O)Nc5ccc(F)cc5)CC4)cc3F)ccnc2cc1OCCCN1CCOCC1 [Foretinib] (partner 0.25 µM)
Procedure, shortened: as §1

[3] = compound: COC1=CC(c2cc3ccccc3[nH]2)=N/C1=C\c1[nH]c(C)cc1C [Obatoclax] + Cc1nc(Nc2ncc(C(=O)Nc3c(C)cccc3Cl)s2)cc(N2CCN(CCO)CC2)n1 [Dasatinib] (partner 0.075 µM)
Procedure, shortened: as §1

[4] = compound: COC1=CC(c2cc3ccccc3[nH]2)=N/C1=C\c1[nH]c(C)cc1C [Obatoclax] + N=C(N)NC(=N)NCCc1ccccc1 [Phenformin] (partner 250 µM)
Procedure, shortened: as §1

| Cell Line | relative viability ([1]; first compound 0.08 µM) | relative viability ([1]; first compound 0.253 µM) | relative viability ([1]; first compound 0.8 µM) | relative viability ([1]; first compound 2.53 µM) | relative viability ([1]; first compound 8 µM) | relative viability ([2]; first compound 0.01 µM) | relative viability ([2]; first compound 0.03162 µM) | relative viability ([2]; first compound 0.1 µM) | relative viability ([2]; first compound 0.3162 µM) | relative viability ([2]; first compound 1 µM) | relative viability ([3]; first compound 0.01 µM) | relative viability ([3]; first compound 0.03162 µM) | relative viability ([3]; first compound 0.1 µM) | relative viability ([3]; first compound 0.3162 µM) | relative viability ([3]; first compound 1 µM) | relative viability ([4]; first compound 0.01 µM) | relative viability ([4]; first compound 0.03162 µM) | relative viability ([4]; first compound 0.1 µM) | relative viability ([4]; first compound 0.3162 µM) | relative viability ([4]; first compound 1 µM) |
| --- | --- | --- | --- | --- | --- | --- | --- | --- | --- | --- | --- | --- | --- | --- | --- | --- | --- | --- | --- | --- |
| NCI-H1651 | 0.904 | 1.2 | 0.855 | 0.607 | 0.144 | 0.766 | 0.734 | 0.774 | 0.47 | 0.42 | 0.563 | 0.376 | 0.372 | 0.293 | 0.187 | 0.384 | 0.324 | 0.386 | 0.252 | 0.184 |
| NCI-H1666 | 0.83 | 0.949 | 0.747 | 0.77 | 0.288 | 0.952 | 0.989 | 0.959 | 0.482 | 0.384 | 0.819 | 0.809 | 0.727 | 0.496 | 0.418 | 0.576 | 0.542 | 0.571 | 0.494 | 0.421 |
| NCI-H1734 | 0.907 | 0.867 | 0.917 | 0.478 | 0.196 | 0.81 | 0.863 | 0.9 | 0.785 | 0.628 | 0.493 | 0.287 | 0.427 | 0.375 | 0.2 | 0.436 | 0.341 | 0.318 | 0.318 | 0.32 |
| NCI-H1755 | 1.05 | 1.04 | 0.993 | 0.799 | 0.267 | 0.913 | 0.937 | 0.886 | 0.908 | 0.961 | 0.425 | 0.402 | 0.335 | 0.44 | 0.397 | 0.622 | 0.6 | 0.492 | 0.634 | 0.541 |
| NCI-H1793 | 0.904 | 1.32 | 0.828 | 0.432 | 0.108 | 0.602 | 0.743 | 0.758 | 0.609 | 0.675 | 0.404 | 0.405 | 0.321 | 0.395 | 0.418 | 0.404 | 0.32 | 0.377 | 0.345 | 0.332 |
| NCI-H1915 | 1.1 | 1.1 | 1.03 | 0.815 | 0.569 | 1.07 | 1.09 | 1.06 | 1.06 | 1.07 | 0.314 | 0.271 | 0.318 | 0.329 | 0.282 | 0.361 | 0.362 | 0.337 | 0.363 | 0.343 |
| NCI-H1944 | 1.21 | 1.4 | 1.23 | 0.86 | 0.348 | 0.877 | 0.772 | 0.894 | 0.942 | 0.933 | 0.206 | 0.198 | 0.198 | 0.242 | 0.223 | 0.215 | 0.202 | 0.149 | 0.201 | 0.18 |
| NCI-H1975 | 0.904 | 0.951 | 0.722 | 0.203 | 0.127 | 0.973 | 1.02 | – | 0.854 | 0.296 | 0.439 | 0.389 | – | 0.351 | 0.153 | 0.438 | 0.427 | – | 0.355 | 0.228 |
